Where “and” joins values, the source holds several entries; their conditions need not be identical. Equal values may be shown once. Toxic doses and inconclusive results are not listed. Cut-off read from the data, not from the text of the source: active = T/C of 150% or more; inactive = T/C below 125%.
Tested on: L1210 leukemia ip in BDF1 mice, survival T/C
Experiment: NCI In Vivo Anticancer Drug Screen. Data for tumor model L1210 Leukemia (intraperitoneal) in B6D2F1 (BDF1) mice
Settings: endpoint: mean survival time, higher = longer survival
Method in brief: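 Value reflects the ratio of survival in compound-treated mice to survival in vehicle-treated controls, with both groups carrying the same transplanted tumor.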

[1] = dose: 100.0 mg/kg/injection, schedule: Q01DX009 (ip), vehicle: saline with Tween-80
[2] = dose: 200.0 mg/kg/injection, schedule: Q01DX009 (ip), vehicle: saline with Tween-80
[3] = dose: 50.0 mg/kg/injection, schedule: Q04DX002 (ip), vehicle: Klucel (hydroxypropylcellulose) (HPC)
[4] = dose: 100.0 mg/kg/injection, schedule: Q04DX002 (ip), vehicle: Klucel (hydroxypropylcellulose) (HPC)
[5] = dose: 100.0 mg/kg/injection, schedule: Q01DX001 (ip), vehicle: saline
[6] = dose: 100.0 mg/kg/injection, schedule: Q01DX009 (ip), vehicle: Klucel (hydroxypropylcellulose) (HPC)
[7] = dose: 200.0 mg/kg/injection, schedule: Q04DX002 (ip), vehicle: Klucel (hydroxypropylcellulose) (HPC)
[8] = dose: 200.0 mg/kg/injection, schedule: Q01DX001 (ip), vehicle: saline
[9] = dose: 400.0 mg/kg/injection, schedule: Q01DX001 (ip), vehicle: saline
[10] = dose: 400.0 mg/kg/injection, schedule: Q04DX002 (ip), vehicle: Klucel (hydroxypropylcellulose) (HPC)
[11] = dose: 100.0 mg/kg/injection, schedule: Q01DX009 (ip), vehicle: saline
[12] = dose: 200.0 mg/kg/injection, schedule: Q01DX009 (ip), vehicle: saline
[13] = dose: 100.0 mg/kg/injection, schedule: Q04DX002 (ip), vehicle: saline with Tween-80
[14] = dose: 200.0 mg/kg/injection, schedule: Q04DX002 (ip), vehicle: saline with Tween-80
[15] = dose: 400.0 mg/kg/injection, schedule: Q01DX009 (ip), vehicle: saline with Tween-80
[16] = dose: 400.0 mg/kg/injection, schedule: Q04DX002 (ip), vehicle: saline with Tween-80
[17] = dose: 100.0 mg/kg/injection, schedule: Q04DX003 (ip), vehicle: Klucel (hydroxypropylcellulose) (HPC)
[18] = dose: 100.0 mg/kg/injection, schedule: Q04DX003 (ip), vehicle: saline with Tween-80
[19] = dose: 200.0 mg/kg/injection, schedule: Q01DX009 (ip), vehicle: Klucel (hydroxypropylcellulose) (HPC)
[20] = dose: 200.0 mg/kg/injection, schedule: Q04DX003 (ip), vehicle: Klucel (hydroxypropylcellulose) (HPC)
[21] = dose: 200.0 mg/kg/injection, schedule: Q04DX003 (ip), vehicle: saline with Tween-80
[22] = dose: 400.0 mg/kg/injection, schedule: Q01DX009 (ip), vehicle: Klucel (hydroxypropylcellulose) (HPC)
[23] = dose: 400.0 mg/kg/injection, schedule: Q04DX003 (ip), vehicle: Klucel (hydroxypropylcellulose) (HPC)
[24] = dose: 400.0 mg/kg/injection, schedule: Q04DX003 (ip), vehicle: saline with Tween-80
[25] = dose: 50.0 mg/kg/injection, schedule: Q01DX009 (ip), vehicle: saline

Measured: T/C

CCOC(=O)CCc1c(COC(C)=O)[nH]c(C(=O)OCC)c1C
inactive: dose: 50.0 mg/kg/injection, schedule: Q01DX001 (ip), vehicle: Klucel (hydroxypropylcellulose) (HPC) 100 % of control | dose: 100.0 mg/kg/injection, schedule: Q01DX001 (ip), vehicle: Klucel (hydroxypropylcellulose) (HPC) 92 % of control | dose: 200.0 mg/kg/injection, schedule: Q01DX001 (ip), vehicle: Klucel (hydroxypropylcellulose) (HPC) 90 % of control

CC1CCC2(O)C(O)CCCC2(C)C1C (stereo unspecified)
inactive: dose: 50.0 mg/kg/injection, schedule: Q01DX009 (ip), vehicle: saline with Tween-80 92 % of control | [1] 89 % of control | [2] 92 % of control

CC(C)(Cc1ccc(Cl)cc1)N=C(N)N
inactive: dose: 25.0 mg/kg/injection, schedule: Q04DX002 (ip), vehicle: Klucel (hydroxypropylcellulose) (HPC) 107 % of control | [3] 95 % of control | [4] 104 % of control

Nc1cc(Cl)c(O)c(Cl)c1
inactive: dose: 12.5 mg/kg/injection, schedule: Q01DX015 (ip), vehicle: saline 97 % of control | dose: 25.0 mg/kg/injection, schedule: Q01DX001 (ip), vehicle: saline with Tween-80 93 % of control | dose: 25.0 mg/kg/injection, schedule: Q01DX015 (ip), vehicle: saline 100 % of control | dose: 50.0 mg/kg/injection, schedule: Q01DX001 (ip), vehicle: saline with Tween-80 92 % of control | dose: 50.0 mg/kg/injection, schedule: Q01DX015 (ip), vehicle: saline 97 % of control | dose: 100.0 mg/kg/injection, schedule: Q01DX001 (ip), vehicle: carboxymethylcellulose (CMC) 93 % of control | [5] 93 % of control | dose: 100.0 mg/kg/injection, schedule: Q01DX015 (ip), vehicle: saline 91 % of control

CCC(=O)C1(c2ccccc2)CCNCC1
inactive: dose: 25.0 mg/kg/injection, schedule: Q01DX009 (ip), vehicle: Klucel (hydroxypropylcellulose) (HPC) 102 % of control | dose: 50.0 mg/kg/injection, schedule: Q01DX009 (ip), vehicle: Klucel (hydroxypropylcellulose) (HPC) 106 % of control | [6] 98 % of control and 118 % of control | [7] 106 % of control

Nc1ccc2ncnn2c1
inactive: [5] 103 % of control | [8] 106 % of control | [9] 101 % of control

Nc1ccc(N=Nc2ccccc2)cc1
inactive: [3] 105 % of control | [4] 105 % of control | [7] 97 % of control and 115 % of control | [10] 112 % of control

OCC(O)CCBr (stereo unspecified)
inactive: [5] 100 % of control | [11] 107 % of control | [8] 105 % of control | [12] 115 % of control | [9] 108 % of control

CSc1ccc(NC(=S)NC(=O)c2ccc(Cl)cc2Cl)cc1
inactive: [1] 93 % of control and 89 % of control | [13] 90 % of control and 92 % of control | [2] 96 % of control and 88 % of control | [14] 93 % of control and 100 % of control | [15] 96 % of control and 100 % of control | [16] 107 % of control and 90 % of control

O=C(/C=C/C(=O)Oc1c(Cl)cc(Cl)cc1Cl)Oc1c(Cl)cc(Cl)cc1Cl
inactive: [6] 106 % of control | [17] 96 % of control | [18] 96 % of control | [19] 104 % of control | [20] 105 % of control | [21] 93 % of control | [22] 96 % of control | [23] 98 % of control | [24] 91 % of control

Clc1ccc(C2=CC(c3ccccc3)C3CC23)cc1 (stereo unspecified)
inactive: dose: 100.0 mg/kg/injection, schedule: Q01DX001 (ip), vehicle: saline with Tween-80 92 % of control | dose: 200.0 mg/kg/injection, schedule: Q01DX001 (ip), vehicle: saline with Tween-80 94 % of control | dose: 400.0 mg/kg/injection, schedule: Q01DX001 (ip), vehicle: saline with Tween-80 89 % of control

O=[N+]([O-])c1cc(COc2ccc(Cl)c(Cl)c2)ccc1Cl
inactive: [6] 95 % of control | [4] 97 % of control and 98 % of control and 102 % of control | [19] 93 % of control | [7] 96 % of control and 97 % of control and 110 % of control | dose: 200.0 mg/kg/injection, schedule: Q04DX002 (ip), vehicle: saline 102 % of control | [22] 96 % of control | [10] 93 % of control and 99 % of control and 103 % of control | dose: 400.0 mg/kg/injection, schedule: Q04DX002 (ip), vehicle: saline 97 % of control

CC(C)CN(CC(C)C)c1ccc([N+](=O)[O-])cc1[N+](=O)[O-]
inactive: [18] 94 % of control | [21] 98 % of control | [24] 96 % of control

CN(C)c1ccc(C=O)cc1Br
inactive: [6] 98 % of control | [17] 100 % of control | [19] 96 % of control | [20] 103 % of control | [22] 96 % of control | [23] 101 % of control

COc1ccc2c(c1)C1(C)CCN(CCc3ccccc3)C(C2)C1C (stereo unspecified)
inactive: dose: 75.0 mg/kg/injection, schedule: Q01DX001 (ip), vehicle: carboxymethylcellulose (CMC) 93 % of control | dose: 150.0 mg/kg/injection, schedule: Q01DX001 (ip), vehicle: carboxymethylcellulose (CMC) 94 % of control

CCc1cccc(CC)c1NC(=O)/C=C/C(=O)O
inactive: [13] 93 % of control | [14] 100 % of control | [16] 96 % of control

CNC(=O)c1ccc[n+](CC(=O)Nc2ccc(Cl)cc2)c1
inactive: dose: 100.0 mg/kg/injection, schedule: Q04DX003 (ip), vehicle: acetone 110 % of control | dose: 200.0 mg/kg/injection, schedule: Q04DX003 (ip), vehicle: acetone 98 % of control

CCOC(=O)/C(=N/N=C(N)N)c1c(C)[nH]c2ccccc12
inactive: dose: 15.0 mg/kg/injection, schedule: Q01DX Z (ip), vehicle: carboxymethylcellulose (CMC) 102 % of control | dose: 30.0 mg/kg/injection, schedule: Q01DX Z (ip), vehicle: carboxymethylcellulose (CMC) 100 % of control | dose: 60.0 mg/kg/injection, schedule: Q01DX Z (ip), vehicle: carboxymethylcellulose (CMC) 95 % of control and 100 % of control | dose: 120.0 mg/kg/injection, schedule: Q01DX Z (ip), vehicle: carboxymethylcellulose (CMC) 93 % of control and 100 % of control | dose: 240.0 mg/kg/injection, schedule: Q01DX Z (ip), vehicle: carboxymethylcellulose (CMC) 100 % of control | dose: 240.0 mg/kg/injection, schedule: Q01DX Z (sc), vehicle: carboxymethylcellulose (CMC) 112 % of control | dose: 480.0 mg/kg/injection, schedule: Q01DX Z (ip), vehicle: carboxymethylcellulose (CMC) 90 % of control | dose: 480.0 mg/kg/injection, schedule: Q01DX Z (sc), vehicle: carboxymethylcellulose (CMC) 114 % of control | dose: 960.0 mg/kg/injection, schedule: Q01DX Z (sc), vehicle: carboxymethylcellulose (CMC) 120 % of control | dose: 1920.0 mg/kg/injection, schedule: Q01DX Z (sc), vehicle: carboxymethylcellulose (CMC) 103 % of control

O=C(OC1CC2CCC1CC2)c1ccc([N+](=O)[O-])cc1 (stereo unspecified)
inactive: [5] 97 % of control | [8] 95 % of control | [9] 92 % of control

Nc1cc(Cl)ccc1N1CCCCC1
inactive: [1] 114 % of control | [2] 97 % of control | [15] 106 % of control

C(=NC12CC3CC(CC(C3)C1)C2)c1ccccc1
inactive: dose: 25.0 mg/kg/injection, schedule: Q01DX009 (ip), vehicle: saline 106 % of control | [25] 97 % of control | [12] 100 % of control | dose: 400.0 mg/kg/injection, schedule: Q01DX009 (ip), vehicle: saline 104 % of control

CN(C)c1ccc(/C=C\C(=O)c2ccccc2)cc1
inactive: dose: 50.0 mg/kg/injection, schedule: Q01DX001 (ip), vehicle: saline 96 % of control | [25] 94 % of control | [5] 102 % of control | [6] 95 % of control | [11] 102 % of control | [17] 94 % of control | [8] 111 % of control | [19] 95 % of control | [12] 97 % of control | [20] 93 % of control | [9] 94 % of control | [22] 97 % of control | [23] 94 % of control

CCOC(=O)C(C(=O)OCC)C(=O)c1cccc2c1ccc1ccccc12
inactive: [13] 95 % of control | [14] 107 % of control | [16] 100 % of control

Reference: PubChem BioAssay AID248 (DTP/NCI, 2004)
